{"source": "patent US20190159451A1", "about": "“ACTIVE COMPOUND COMBINATIONS AND METHODS TO PROTECT THE PROPAGATION MATERIAL OF PLANTS” (Bayer CropScience Aktiengesellschaft, priority 2016, published 2019)", "key": {"Myzus persicae [1]": {"tested_on": "Myzus persicae", "experiment": "Myzus persicae spray test", "type": "in vivo", "details": "for mortality: 100 g/ha, after 6 days, Chinese cabbage leaf disks", "experimental": "Myzus persicae—Spray Test\n(§1) Solvent: 78.0 parts by weight acetone • 1.5 parts by weight dimethylformamide\n(§2) Emulsifier: alkylarylpolyglycol ether\n(§3) To produce a suitable preparation of active compound, 1 part by weight of active compound is mixed with the stated amount of solvents and is diluted with water, containing an emulsifier concentration of 1000 ppm, to the desired concentration. Further test concentrations are prepared by dilution with emulsifier containing water.\nChinese cabbage (Brassica pekinensis) leaf disks infected with all instars of the green peach aphid (Myzus persicae), are sprayed with a preparation of the active ingredient of the desired concentration.\nAfter 6 days mortality in % is determined. 100% means all aphids have been killed and 0% means none of the aphids have been killed."}, "Log P (HCOOH)": {"experiment": "Log P (HCOOH)", "type": "physicochemical", "details": "HCOOH (formic acid); read-out: Log P-Wert (HCOOH)"}, "Musca domestica": {"tested_on": "Musca domestica", "experiment": "Musca domestica test (MUSCDO)", "type": "in vivo", "details": "for mortality: after 2 days, adult house flies", "experimental": "Musca domestica—Test (MUSCDO)\n(§4) Solvent: dimethyl sulfoxide\nTo produce a suitable preparation of active compound, 10 mg of active compound are dissolved in 0.5 ml solvent, and the concentrate is diluted with water to the desired concentration.\n10 adult house flies (Musca domestica) are transferred into a container, containing a sponge soaked with a mixture of sugar solution and compound solution of the desired concentration.\nAfter 2 days mortality in % is determined. 100% means all the flies have been killed; 0% means none of the flies have been killed."}, "Ctenocephalides felis": {"tested_on": "Ctenocephalides felis", "experiment": "Ctenocephalides felis in-vitro contact test, adult cat flea", "type": "in vivo", "details": "5 μg/cm^2 (=500 g/ha), after 48 hours", "experimental": "Ctenocephalides felis—In-Vitro Contact Tests Adult Cat Flea\n9 mg compound is solved in 1 ml acetone and diluted with acetone to the desired concentration. 250 μl of the test solution is filled in 25 ml glass test tubes and homogeneously distributed on the inner walls by rotation and tilting on a shaking device (2 h at 30 rpm). With a compound concentration of 900 ppm, an inner surface of 44.7 cm^2 and a homogeneous distribution, a dose of […] is achieved.\nAfter the solvent has evaporated, each test tube is filled with 5-10 adult cat fleas (Ctenocephalides felis), closed with a perforated lid and incubated in a lying position at room temperature and relative humidity. After 48 hours efficacy is determined. The fleas are patted on the ground of the tubes and are incubated on a heating plate at 45-50° C. for at most 5 minutes. Immotile or uncoordinated moving fleas, which are not able to escape the heat by climbing upwards, are marked as dead or moribund.\nAn efficacy of 100% means all fleas are dead or moribund; 0% means no fleas are dead or moribund."}, "Diabrotica balteata": {"tested_on": "Diabrotica balteata", "experiment": "Diabrotica balteata spray test", "type": "in vivo", "details": "160 μg/well, after 7 days, larvae on germinated wheat seeds", "experimental": "Diabrotica balteata—Spray Test\n(§5) Solvent: 78.0 parts by weight of acetone • • 1.5 parts by weight of dimethylformamide\nas §2\nas §3, with “solvent,” for “solvents”, “and the concentrate” for “and”\nSoaked wheat seeds (Triticum aestivum) are placed in a multiple well plate filled with agar and some water and are incubated for 1 day to germinate (5 seeds per well). The germinated wheat seeds are sprayed with a test solution containing the desired concentration of the active ingredient. Afterwards each unit is infected with 10-20 larvae of the banded cucumber beetle (Diabrotica balteata).\nAfter 7 days efficacy in % is determined. 100% means all the seedlings have grown up like in the untreated, uninfected control; 0% means none of the seedlings have grown."}, "Lucilia cuprina": {"tested_on": "Lucilia cuprina", "experiment": "Lucilia cuprina test (LUCICU)", "type": "in vivo", "details": "48 h", "experimental": "Lucilia cuprina—Test (LUCICU)\nas §4\n10 mg active compound are dissolved in 0.5 ml Dimethylsulfoxid. Serial dilutions are made to obtain the desired rates.\nApproximately 20 1st instar larvae of the Australian sheep blowfly (Lucilia cuprina) are transferred into a test tube containing minced horse meat and compound solution of the desired concentration.\nAfter 2 days mortality in % is determined. 100% means all the larvae have been killed; 0% means none of the larvae have been killed."}, "Nilaparvata lugens": {"tested_on": "Nilaparvata lugens", "experiment": "Nilaparvata lugens spray test", "type": "in vivo", "experimental": "Nilaparvata lugens—Spray Test\nas §5, §2, §3\nRice plants (Oryza sativa) are sprayed with a preparation of the active ingredient of the desired concentration and the plants are infested with the brown planthopper (Nilaparvata lugens).\nAfter 4 days mortality in % is determined. 100% means all planthoppers have been killed and 0% means none of the planthoppers have been killed."}, "Myzus persicae [2]": {"tested_on": "Myzus persicae", "experiment": "Myzus persicae oral test", "type": "in vivo", "experimental": "Solvent: 100 parts by weight acetone\nTo produce a suitable preparation of active compound, 1 part by weight of active compound is mixed with the stated amount of solvent, and the concentrate is diluted with water to the desired concentration. 50 μl compound solution is filled in microtiter plates and 150 μl IPL41 insect medium (33%+15% sugar) is added to obtain a total volume of […] per well. Afterwards the plates are sealed with parafilm through which a mixed population of the green peach aphid (Myzus persicae) can suck on the compound preparation.\nAfter 5 days mortality in % is determined. 100% means all aphids have been killed and 0% means none of the aphids have been killed."}, "Tetranychus urticae": {"tested_on": "Tetranychus urticae", "experiment": "whole plant or invertebrate", "type": "in vivo", "details": "in Phaseolus vulgaris, foliar, 144 h", "experimental": "Tetranychus urticae—Spray Test OP-Resistant\nas §1, §2, §3\nFrench bean (Phaseolus vulgaris) leaf disks infected with all instars of the two spotted spidermite (Tetranychus urticae), are sprayed with a preparation of the active ingredient of the desired concentration.\nAfter 6 days mortality in % is determined. 100% means all spider mites have been killed and 0% means none of the spider mites have been killed."}, "Nezara viridula": {"tested_on": "Nezara viridula", "experiment": "Nezara viridula spray test", "type": "in vivo", "experimental": "Nezara viridula—Spray Test\nas §5, §2\nas §3, with “solvent,” for “solvents”, “and the concentrate” for “and”\nBarley plants (Hordeum vulgare) infested with larvae of the southern green stink bug (Nezara viridula) are sprayed with a test solution containing the desired concentration of the active ingredient.\nAfter 4 days mortality in % is determined. 100% means all the stink bugs have been killed; 0% means none of the stink bugs have been killed."}, "Phaedon cochleariae": {"tested_on": "Phaedon cochleariae", "experiment": "Phaedon cochleariae spray test", "type": "in vivo", "details": "20 g/ha, after 7 days, larvae on Chinese cabbage leaf disks", "experimental": "Phaedon cochleariae—Spray Test\nas §5, §2, §3\nChinese cabbage (Brassica pekinensis) leaf disks are sprayed with a preparation of the active ingredient of the desired concentration. Once dry, the leaf disks are infested with mustard beetle larvae (Phaedon cochleariae).\nAfter 7 days mortality in % is determined. 100% means all beetle larvae have been killed and 0% means none of the beetle larvae have been killed."}, "[3]": {"details": "Myzus persicae, in Brassica rapa, foliar, 144 h"}}}
{"smiles": "O=C(/C=C1\\SCCN1Cc1ccc(Cl)nc1)C(F)(F)F", "note": "[Example I-1, 3-[3-[(6-Chloro-3-pyridinyl)methyl]-2-thiazolidinylidene]-1,1,1-trifluoro-2-propanone]", "values": [{"measurement": "mortality at 100 g/ha", "setting": "Myzus persicae [1]; [3]", "result": 90, "unit": "%"}, {"measurement": "chromatographic logP", "setting": "Log P (HCOOH)", "result": 2.21}, {"measurement": "mortality at 4 ppm", "setting": "Musca domestica; Musca domestica, 48 h", "result": 90, "unit": "%"}, {"measurement": "efficacy (fleas dead or moribund)", "setting": "Ctenocephalides felis", "result": 100, "unit": "%"}, {"measurement": "efficacy (seedlings grown)", "setting": "Diabrotica balteata", "result": 100, "unit": "%"}, {"measurement": "mortality at 100 ppm", "setting": "Lucilia cuprina", "result": 100, "unit": "%"}]}
{"smiles": "O=C(/C=C1\\SCCN1Cc1ccc(F)nc1)C(F)(F)F", "note": "[Example I-2, 3-[3-[(6-Fluoro-3-pyridinyl)methyl]-2-thiazolidinylidene]-1,1,1-trifluoro-2-propanone]", "values": [{"measurement": "mortality at 500 g/ha", "setting": "Myzus persicae [1]; [3]", "result": 100, "unit": "%"}, {"measurement": "mortality at 500 g/ha", "setting": "Nilaparvata lugens; Nilaparvata lugens, in Oryza sativa, 96 h", "result": 100, "unit": "%"}, {"measurement": "chromatographic logP", "setting": "Log P (HCOOH)", "result": 2.25}, {"measurement": "mortality at 4 ppm", "setting": "Musca domestica; Musca domestica, 48 h", "result": 80, "unit": "%"}, {"measurement": "mortality at 20 ppm", "setting": "Musca domestica; Musca domestica, 48 h", "result": 95, "unit": "%"}, {"measurement": "mortality at 20 ppm", "setting": "Myzus persicae [2]; Myzus persicae, po, 120 h", "result": 100, "unit": "%"}, {"measurement": "efficacy (fleas dead or moribund)", "setting": "Ctenocephalides felis", "result": 100, "unit": "%"}, {"measurement": "mortality at 500 g/ha", "setting": "Tetranychus urticae", "result": 80, "unit": "%"}, {"measurement": "mortality at 500 g/ha", "setting": "Nezara viridula; Nezara viridula, in Hordeum vulgare, 96 h", "result": 90, "unit": "%"}, {"measurement": "efficacy (seedlings grown)", "setting": "Diabrotica balteata", "result": 100, "unit": "%"}, {"measurement": "mortality at 100 ppm", "setting": "Lucilia cuprina", "result": 100, "unit": "%"}]}
{"smiles": "O=C(/C=C1\\NCCN1Cc1ccc(Br)nc1)C(F)(F)F", "note": "[Example I-3, 3-[1-[(6-Bromo-3-pyridinyl)methyl]-2-imidazolidinylidene]-1,1,1-trifluoro-2-propanone]", "values": [{"measurement": "mortality at 100 g/ha", "setting": "Myzus persicae [1]; [3]", "result": 90, "unit": "%"}, {"measurement": "mortality at 4 ppm", "setting": "Musca domestica; Musca domestica, 48 h", "result": 80, "unit": "%"}, {"measurement": "efficacy (fleas dead or moribund)", "setting": "Ctenocephalides felis", "result": 100, "unit": "%"}, {"measurement": "efficacy (seedlings grown)", "setting": "Diabrotica balteata", "result": 100, "unit": "%"}, {"measurement": "mortality at 100 ppm", "setting": "Lucilia cuprina", "result": 100, "unit": "%"}]}
{"smiles": "O=C(C=C1SCCN1Cc1ccc(Br)nc1)C(F)(F)F", "note": "[Example I-4]", "values": [{"measurement": "mortality", "setting": "Musca domestica; 4 ppm", "result": 100, "unit": "%"}, {"measurement": "efficacy (fleas dead or moribund)", "setting": "Ctenocephalides felis", "result": 100, "unit": "%"}, {"measurement": "efficacy (seedlings grown)", "setting": "Diabrotica balteata", "result": 100, "unit": "%"}]}
{"smiles": "O=C(C=C1NCCN1Cc1ccc(Cl)nc1)C(F)(F)F", "note": "[Example I-5]", "values": [{"measurement": "mortality", "setting": "Musca domestica; 4 ppm", "result": 100, "unit": "%"}, {"measurement": "efficacy (fleas dead or moribund)", "setting": "Ctenocephalides felis", "result": 100, "unit": "%"}]}
{"smiles": "O=C(C=C1NCCCN1Cc1ccc(F)nc1)C(F)(F)F", "note": "[Example I-6]", "values": [{"measurement": "mortality", "setting": "Musca domestica; 20 ppm", "result": 100, "unit": "%"}, {"measurement": "efficacy (fleas dead or moribund)", "setting": "Ctenocephalides felis", "result": 100, "unit": "%"}, {"measurement": "efficacy (seedlings grown)", "setting": "Diabrotica balteata", "result": 100, "unit": "%"}]}
{"smiles": "O=C(C=C1NCCCN1Cc1ccc(Cl)nc1)C(F)(F)F", "note": "[Example I-7]", "values": [{"measurement": "mortality", "setting": "Myzus persicae [1]", "result": 90, "unit": "%"}, {"measurement": "mortality", "setting": "Phaedon cochleariae", "result": 100, "unit": "%"}, {"measurement": "efficacy (fleas dead or moribund)", "setting": "Ctenocephalides felis", "result": 100, "unit": "%"}]}
{"smiles": "O=C(C=C1NCCCN1Cc1ccc(Br)nc1)C(F)(F)F", "note": "[Example I-8]", "values": [{"measurement": "mortality", "setting": "Myzus persicae [1]", "result": 90, "unit": "%"}, {"measurement": "mortality", "setting": "Nilaparvata lugens; 500 g/ha, after 4 days, rice plants", "result": 100, "unit": "%"}, {"measurement": "mortality", "setting": "Phaedon cochleariae", "result": 100, "unit": "%"}, {"measurement": "mortality", "setting": "Musca domestica; 20 ppm", "result": 100, "unit": "%"}, {"measurement": "mortality", "setting": "Myzus persicae [2]; 20 ppm, after 5 days, oral", "result": 100, "unit": "%"}, {"measurement": "efficacy (fleas dead or moribund)", "setting": "Ctenocephalides felis", "result": 100, "unit": "%"}, {"measurement": "mortality", "setting": "Nezara viridula; 500 g/ha, after 4 days, larvae on barley plants", "result": 90, "unit": "%"}, {"measurement": "efficacy (seedlings grown)", "setting": "Diabrotica balteata", "result": 100, "unit": "%"}]}
